The target in the test is T1, human α7 nicotinic acetylcholine receptor (HEK cell line stably expressing human RIC-3 and human α7) (Homo sapiens, UniProt P36544).
T1 construct: host or cells: HEK cell line (PrecisION hnAChR α7/RIC-3)
The test is described as follows: Automated patch-clamp electrophysiology functional assay (Assay A), IonFlux HT, whole-cell population patch. It is filed as cell-based. (In general: The patch-clamp technique gives a direct electrical read-out from membranes.)

Setting [1] is: HEK cells expressing human α7/RIC-3, test compound with or without 40 μM acetylcholine, holding potential −60 mV, room temperature, read-out: α7 nAChR Potency.
Setting [2] is: automated patch-clamp electrophysiology functional assay (Assay A), read-out: α7 nAChR EC50.

Where two headings read alike, the source gives them in different places.

Among the data in US11332463B2, “Spiropiperidine allosteric modulators of nicotinic acetylcholine receptors” (Merck Sharp & Dohme Corp., priority 2018, dated 2022) are EC50 values, retold here.

T1 sequence (P36544 23-502): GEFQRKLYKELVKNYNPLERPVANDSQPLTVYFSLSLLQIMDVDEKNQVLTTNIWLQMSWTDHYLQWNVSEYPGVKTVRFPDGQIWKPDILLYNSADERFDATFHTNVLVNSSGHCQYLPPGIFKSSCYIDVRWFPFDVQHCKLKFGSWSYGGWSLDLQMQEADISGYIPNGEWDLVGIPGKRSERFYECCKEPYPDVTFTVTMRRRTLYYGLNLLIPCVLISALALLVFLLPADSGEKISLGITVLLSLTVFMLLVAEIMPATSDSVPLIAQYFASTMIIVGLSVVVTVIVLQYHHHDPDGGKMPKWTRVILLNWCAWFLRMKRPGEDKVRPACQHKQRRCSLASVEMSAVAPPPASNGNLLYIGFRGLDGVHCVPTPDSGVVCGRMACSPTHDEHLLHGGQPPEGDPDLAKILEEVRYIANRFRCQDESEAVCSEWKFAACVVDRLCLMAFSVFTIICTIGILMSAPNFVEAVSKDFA

`NS(=O)(=O)N1CCC2(CC1)[C@H](c1nc(-c3ccnn3CC(F)(F)F)no1)C2(F)F` [Example 12, (2R)-1,1-Difluoro-2-{3-[1-(2,2,2-trifluoroethyl)-1H-pyrazol-5-yl]-1,2,4-oxadiazol-5-yl}-6-azaspiro[2.5]octane-6-sulfonamide]: the EC50 was 100 to 500 nM under setting [1] and 220 nM under setting [2].

In the case of `NS(=O)(=O)N1CCC2(CC1)C[C@H]2c1noc(-c2ccccc2-c2ncccn2)n1` [Example E76], the EC50 runs as follows: under setting [1], 500 to 5000 nM; under setting [2], 3200 nM.

For `CC(C)(C)n1ncc(-c2nc([C@@H]3C(F)(F)C34CCN(S(N)(=O)=O)CC4)no2)c1C(F)(F)F` [Example E39], the EC50 is, setting by setting: under setting [1], 100 to 500 nM; under setting [2], 150 nM.

With `COc1ccc(Cl)cc1-c1noc(C2CC23CCN(C(=O)NC2CCCCC2)CC3)n1` (racemic) [Example B10], the EC50 under setting [1] was in the range of 500 to 5000 nM.
